Our source for the GI50 values is patent US10647680B2, “Urea compound, preparation method therefor and medical use thereof” (Ancureall Pharmaceutical (Shanghai) Co., Ltd., priority 2016, dated 2020).

For experiment [1], the system named is MV4-11 (FLT3 ITD+/+ mutant type). Put plainly: In vitro growth inhibition (GI50), MV4-11. Conditions: Homo sapiens, MV4-11; Cell lines of leukemia; read-out: GI 50 MV4-11 FLT3 (ITD +/+). It is filed as cell-based, human. An excerpt:
(§1) 1. Cell Lines and Cell Cultures
(§2) Tumor cell line is an effective cell model for studying the inhibition of tumor cell growth or proliferation in vitro. In the present invention, a representative tumor cell line was selected to determine the cell growth inhibition activity of the present compound. All cell lines used were from ATCC, DSMZ, and the Cell Bank of the Chinese Academy of Sciences. Cell culture conditions and methods were in accordance with the requirements of each cell line. Cells were subcultured in vitro for no more than 3 passages each time, and as required, single-clone purification and identification of cell lines could be carried out.
(§3) The cell culture media used were RPMI1640 (Gibco), MEM (Gibco), McCOY'S5A (Gibco), and IMDM (Gibco). The complete medium was prepared by supplement with 5˜20% fetal calf serum (Gibco), 1% double-antibiotics (10000 units/mL penicillin and 10000 units/mL), 2 mM glutamine or 1 mM sodium pyruvate, respectively.
(§4) The human acute […] monomonocyte leukemia cell line MV4-11 (FLT3 ITD+/+ mutant type, ATCC) was cultured in a complete medium comprising 1×IMDM and 10% FBS. Human acute myeloid leukemia cell line MOLM-13 (FLT3 ITD+/− mutant type, DSMZ), human acute lymphoblastic leukemia cell line RS4; 11 (FLT3 wild type, ATCC), human chronic granulocytic leukemia cell line K562 (FLT3 negative expression, positive expression of BCR-ABL fusion protein, ATCC), human promyelocytic leukemia cell line HL-60 (FLT3 wild type, ATCC), human B lymphoblastic leukemia cell line RAMOS (positive expression of Brutons tyrosine protein kinase, ATCC), human acute myeloid leukemia cell line Kasumi-1 (c-Kit N822K mutant type, ATCC), human acute monocytic leukemia cell line U937 (FLT3 wild-type, ATCC), human acute myeloid leukemia cell line OCI-AML3 (NPMc+ mutant type, ATCC), human acute myeloid leukemia cell line KG-1 (expressing FGFR1OP2-FGFR1 fusion protein, ATCC) were cultured in a complete medium comprising 1×RPMI1640 and 10% FBS, respectively.
(§5) The suspension cells were collected by centrifugation. The supernatant was discarded and the cell pellet was resuspended and counted. Different cell concentrations (5˜10×10^4 cells/mL) were prepared according to the growth cycle of each cell line and then seeded on a 96-well plate (Corning), 100 μL/well. The cells were incubated overnight at 37° C., 5% CO2. The compounds were added to the cells on the second day with 2 wells in parallel. The final concentration of organic solvent shall not exceed 1%. The cells were continually incubated for 3 to 5 days, and then subjected to MTT assay.
(§6) The compound was stored in a concentration of 10 mM at −20° C. and diluted to 2- or 10-fold series prior to use.
(§7) Dojindo CCK8 reagent kit was used as MTT assay. […] FC meter was used as microplate reader.
(§8) For adherent cells, culture medium was removed and immediately replaced with the fresh prepared medium which contains 10% CCK8 reagent (100 μL/well). For the suspension cells, CCK8 was directly added to 10% of the final concentration. The cells were continually incubated for 1˜4 h. […] The experiment was independently repeated 1˜3 times, and subject to biological statistical analysis. 4. Experimental Results
(§9) The initial concentration of the compound was 5,000 nM, then it was serially diluted by 2-fold or 10-fold to 0.01 nM. The GI50 value of each test compound was calculated according to the GI50 assay and calculation method. The experiments were repeated 1 to 3 times, and data were subjected to biological statistical analysis.

Another experiment deals with U937 (FLT3 wild-type). Put plainly: In vitro growth inhibition (GI50), U937. Format: cell-based. Conditions: Homo sapiens, U-937; Cell lines of leukemia; read-out: GI 50 U937 FLT 3(WT).
Description: as §1, §2, §3, §4, §5, §6, §7, §8, §9

The test system of experiment [2] is K562 (FLT3 negative expression, positive expression of BCR-ABL fusion protein). As to the kind of experiment: In vitro growth inhibition (GI50), K562. Format: cell-based. The conditions noted are these: Homo sapiens, Cell lines of leukemia, read-out: GI 50 K562 BCR-ABL.
Description: as §1, §2, §3, §4, §5, §6, §7, §8, §9

Experiment [3] concerns OCI-AML3 (NPMc+ mutant type). Put plainly: In vitro growth inhibition (GI50), OCI-AML3. Format: cell-based. The conditions noted are these: Homo sapiens, OCI-AML-3; Cell lines of leukemia; read-out: GI 50 OCI- AML3 NPMc+.
Description: as §1, §2, §3, §4, §5, §6, §7, §8, §9

In experiment [4] the test system is MOLM-13 (FLT3 ITD+/− mutant type). Put plainly: In vitro growth inhibition (GI50), MOLM-13. It is filed as cell-based, human. Conditions: Homo sapiens, MOLM-13; Cell lines of leukemia; read-out: GI 50 MOLM-13 FLT3 (ITD+/−).
Description: as §1, §2, §3, §4, §5, §6, §7, §8, §9

Experiment [5] deals with KG-1 (expressing FGFR1OP2-FGFR1 fusion protein). Put plainly: In vitro growth inhibition (GI50), KG-1. The conditions noted are these: Homo sapiens; Cell lines of leukemia; read-out: GI 50 KG-1 FGFR1OP 2-FGFR1. Format: cell-based.
Description: as §1, §2, §3, §4, §5, §6, §7, §8, §9

The test system of the next experiment is HL-60 (FLT3 wild type). As to the kind of experiment: In vitro growth inhibition (GI50), HL-60. Format: cell-based. Conditions: Homo sapiens, Cell lines of leukemia, read-out: GI 50 HL60 FLT3 (WT).
Description: as §1, §2, §3, §4
as §5, with “Adherent cells were digested with 0.25% pancreatin-EDTA (Gibco). The suspension” for “The suspension”
(§10) The compound of the present invention and the control compound were dissolved in DMSO (Sigma) respectively, with the purity of more than 98%. The compound was stored in a concentration of 10 mM at −20° C. and diluted to 2- or 10-fold series prior to use.
(§11) Dojindo CCK8 reagent kit was used as MTT assay. THERMO […] FC meter was used as microplate reader.
(§12) For adherent cells, culture medium was removed and immediately replaced with the fresh prepared medium which contains 10% CCK8 reagent (100 μL/well). For the suspension cells, CCK8 was directly added to 10% of the final concentration. The cells were continually incubated for 1˜4 h. When a dark yellow color could be observed in the solvent control wells, the absorbance value at OD450 nm was measured and the cell growth rate was calculated according to the following formula: Cell Growth Rate (%)=100*(T−T0)/(C−T0) T=optical density of drug treatment cell well—optical density of blank control well; T0=optical density of cell well before drug treatment—optical density of blank control well; C=optical density of cell well of solvent control group—optical density of blank control well. The concentration value of 50% inhibition of cell growth (GI50) was calculated according to the drug concentration and cell growth rate curve. […]

In experiment [6] the test system is Kasumi-1 (c-Kit N822K mutant type). As to the kind of experiment: In vitro growth inhibition (GI50), Kasumi-1. It is filed as cell-based. The conditions noted are these: Homo sapiens, Cell lines of leukemia, read-out: GI 50 Kasumi-1 Kit (N822K).
Description: as §1, §2, §3, §4
as §5, with “Adherent cells were digested with 0.25% pancreatin-EDTA (Gibco). The suspension” for “The suspension”
as §10, §11, §12

The next experiment relates to RS4; 11 (FLT3 wild type). Put plainly: In vitro growth inhibition (GI50), RS4; 11. Format: cell-based, human. Conditions: Homo sapiens, RS4-11; Cell lines of leukemia; read-out: GI 50 RS4: 11 FLT3 (WT).
Description: as §1, §2, §3, §4, §5, §6, §7, §8, §9

In experiment [7] the test system is RAMOS (positive expression of Brutons tyrosine protein kinase). Put plainly: In vitro growth inhibition (GI50), RAMOS. It is filed as cell-based. The conditions noted are these: Homo sapiens, Cell lines of leukemia, read-out: GI 50 Ramos BTK.
Description: as §1, §2, §3, §4, §5, §6, §7, §8, §9

Structures can show the parent of a compound that is named as a salt.

For the molecule `Cc1noc(NC(=O)Nc2ccc(-n3cnc4ccccc43)cc2)c1C` [Compound 131, 1-(4-benzimidazol-1-yl-phenyl)-3-(3,4-dimethyl-isoxazol-5-yl)-urea], the GI50 is 100 to 1000 nM in experiment [1]; > 1000 nM with U937 (FLT3 wild-type); > 1000 nM in [2]; > 1000 nM in experiment [3]; 100 to 1000 nM in experiment [4]; > 1000 nM in experiment [5]. Further, the GI50 (with HL-60 (FLT3 wild type); in [6]; in the experiment with RS4; 11 (FLT3 wild type); in experiment [7]) was > 1000 nM in each case.

For the molecule `CC(C)(C)c1cc(NC(=O)Nc2ccc(-n3cnc4cc(Oc5nsnc5N5CCOCC5)ccc43)cc2)[nH]n1` [Compound 95, 1-(5-tert-butyl-2H-pyrazol-3-yl)-3-{4-[5-(4-morpholin-4-yl-[1,2,5]thiadiazol-3-yloxy)-benzimidazol-1-yl]-phenyl}-urea], the GI50 in experiment [1] is 1 to 10 nM; in the experiment with U937 (FLT3 wild-type), > 1000 nM; in [2], > 1000 nM; in experiment [3] it was > 1000 nM; in experiment [4], 1 to 10 nM; in experiment [5], > 1000 nM. Besides, the GI50 (in the experiment on HL-60 (FLT3 wild type); in [6]; with RS4; 11 (FLT3 wild type); in experiment [7]) was > 1000 nM throughout.

Turning to `CC(C)(C)c1cc(NC(=O)Nc2ccc(-n3cnc4cc(F)ccc43)cc2)[nH]n1` [Compound 69, 1-(5-tert-butyl-2H-pyrazol-3-yl)-3-[4-(5-fluoro-benzimidazol-1-yl)-phenyl]-urea], the GI50 in experiment [1] was 0.1 to 1 nM; in the experiment with U937 (FLT3 wild-type), > 1000 nM; in [2], 100 to 1000 nM; in experiment [3], > 1000 nM; in [4], 0.1 to 1 nM; in experiment [5] it was > 1000 nM. For the same molecule, the GI50 in the experiment with HL-60 (FLT3 wild type) was > 1000 nM; in experiment [6], > 1000 nM; in the experiment on RS4; 11 (FLT3 wild type) it was 100 to 1000 nM; in experiment [7], > 1000 nM.

With `Cc1cc(N)nn1C(=O)Nc1ccc(-n2cnc3ccccc32)cc1` [Compound 113, 3-amino-5-methylpyrazol-1-carboxylic acid (4-benzimidazol-1-yl-phenyl)-amide], the GI50 (with U937 (FLT3 wild-type); in [2]; in [3]; in [5]; with HL-60 (FLT3 wild type); in experiment [6]) was > 1000 nM in each case. Further, the GI50 (with RS4; 11 (FLT3 wild type); in [7]) was > 1000 nM each time.

Turning to `CC(C)Oc1ccc2c(c1)ncn2-c1ccc(NC(=O)Nc2cc(C(C)(C)C)n[nH]2)cc1` [Compound 74, 1-(5-tert-butyl-2H-pyrazol-3-yl)-3-[4-(5-isopropoxy-benzimidazol-1-yl)-phenyl]-urea], the GI50 in [1] was 0.1 to 1 nM; with U937 (FLT3 wild-type), > 1000 nM; in [2] it was > 1000 nM; in [3], > 1000 nM; in experiment [4] it was 0.1 to 1 nM; in experiment [5] it was > 1000 nM. Moreover, the GI50 (in the experiment with HL-60 (FLT3 wild type); in [6]; with RS4; 11 (FLT3 wild type); in experiment [7]) was > 1000 nM in each case.

Consider `CC(C)(C)c1cc(NC(=O)Nc2ccc(-n3cnc4cc(OCCOCCO)ccc43)cc2)no1` [Compound 14, 1-(5-tert-butyl-isoxazol-3-yl)-3-(4-{5-[2-(2-hydroxy-ethoxyl)-ethoxyl]-benzimidazol-1-yl}-phenyl)-urea], for which the GI50 was 0.1 to 1 nM in experiment [1]; > 1000 nM in the experiment with U937 (FLT3 wild-type); 100 to 1000 nM in [2]; > 1000 nM in experiment [3]; 0.1 to 1 nM in experiment [4]; > 1000 nM in experiment [5]. For the same molecule, the GI50 is > 1000 nM in the experiment on HL-60 (FLT3 wild type), > 1000 nM in experiment [6] and 100 to 1000 nM in the experiment with RS4; 11 (FLT3 wild type).

In the case of `COCCOc1ccc2c(c1)ncn2-c1ccc(NC(=O)Nc2cc(C(C)(C)C)nn2C)cc1` [Compound 101, 1-(5-tert-butyl-2-methyl-2H-pyrazol-3-yl)-3-{4-[5-(2-methoxyl-ethoxyl)-benzimidazol-1-yl]-phenyl}urea], the GI50 in experiment [1] is 0.1 to 1 nM; in the experiment on U937 (FLT3 wild-type) it was > 1000 nM; in [3] it was > 1000 nM; in [4], 0.1 to 1 nM; in the experiment with HL-60 (FLT3 wild type), > 1000 nM; in experiment [6] it was > 1000 nM. In addition, the GI50 (with RS4; 11 (FLT3 wild type); in experiment [7]) was > 1000 nM throughout.

Take `Cn1nc(C(C)(C)C)cc1NC(=O)Nc1ccc(-n2cnc3cc(OCCN4CCOCC4)ccc32)cc1` [Compound 102]: the GI50 in experiment [1] is 0.1 to 1 nM; in the experiment on U937 (FLT3 wild-type), > 1000 nM; in experiment [3], > 1000 nM; in experiment [4] it was 0.1 to 1 nM; in the experiment on HL-60 (FLT3 wild type), > 1000 nM; in experiment [6], > 1000 nM. In addition, the GI50 (in the experiment with RS4; 11 (FLT3 wild type); in [7]) was > 1000 nM throughout.

As to `CC(C)(C)c1cc(NC(=O)Nc2ccc(-c3cn4c(n3)sc3cc(OCCN5CCOCC5)ccc34)cc2)no1` [AC220, N-(5-tert-butyl-isoxazol-3-yl)-N′-{4-[7-(2-morpholin-4-yl-ethoxy)imidazo[2,1-b][1,3]benzothiazol-2-yl]phenyl}urea dihydrochloride, reference compound], the GI50 in experiment [3], in [5] and in [7] was > 1000 nM each time.
